In PMC11426312 (Biochemistry, 2024):
pIC50: −log10 of the molar value.

Tests used:
[1] = molecular target: T1, AbHMPK (hydroxymethyl pyrimidine kinase / phosphomethylpyrimidine kinase) (Acinetobacter baumannii, UniProt A0A0J9X285); experiment: X-ray crystal structure; format: biochemical
[2] = molecular target: T1, AbHMPK (hydroxymethyl pyrimidine kinase / phosphomethylpyrimidine kinase); experiment: HPLC and LC-MS/MS of the enzymatic product; format: biochemical

T1 sequence (A0A0J9X285 whole entry): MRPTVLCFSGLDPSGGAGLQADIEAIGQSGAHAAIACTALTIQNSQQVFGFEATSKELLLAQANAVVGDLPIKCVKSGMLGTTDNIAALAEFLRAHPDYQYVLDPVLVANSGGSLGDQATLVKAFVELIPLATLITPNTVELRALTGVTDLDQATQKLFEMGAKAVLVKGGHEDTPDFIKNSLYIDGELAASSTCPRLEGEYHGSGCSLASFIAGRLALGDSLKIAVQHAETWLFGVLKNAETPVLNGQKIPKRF

| Structure (SMILES) | pIC50 [1] | HPLC and LC-MS/MS of the enzymatic product [2] |
| --- | --- | --- |
| Cc1ncc(COP(=O)(O)O)c(C=O)c1O [PLP, 4-Formyl-5-hydroxy-6-methylpyridin-3-yl) methyl dihydrogen phosphate] | 3.11 | – |
| Cc1ncc(COP(=O)(O)O)c(N)n1 [HMP-P] | – | the mass spectrometry analysis all confirm that this single product is HMP-P |
